Holding throughout (test): KINOMEscan (ScanMAX) kinase profiling
Common to all, as to type: binding

Experiment [1] has as its target T1, panel of 468 kinases (Homo sapiens, UniProt Q02156).
T1 construct: purchased KINOMEscan (ScanMAX) service
T1 sequence (Q02156 1-737): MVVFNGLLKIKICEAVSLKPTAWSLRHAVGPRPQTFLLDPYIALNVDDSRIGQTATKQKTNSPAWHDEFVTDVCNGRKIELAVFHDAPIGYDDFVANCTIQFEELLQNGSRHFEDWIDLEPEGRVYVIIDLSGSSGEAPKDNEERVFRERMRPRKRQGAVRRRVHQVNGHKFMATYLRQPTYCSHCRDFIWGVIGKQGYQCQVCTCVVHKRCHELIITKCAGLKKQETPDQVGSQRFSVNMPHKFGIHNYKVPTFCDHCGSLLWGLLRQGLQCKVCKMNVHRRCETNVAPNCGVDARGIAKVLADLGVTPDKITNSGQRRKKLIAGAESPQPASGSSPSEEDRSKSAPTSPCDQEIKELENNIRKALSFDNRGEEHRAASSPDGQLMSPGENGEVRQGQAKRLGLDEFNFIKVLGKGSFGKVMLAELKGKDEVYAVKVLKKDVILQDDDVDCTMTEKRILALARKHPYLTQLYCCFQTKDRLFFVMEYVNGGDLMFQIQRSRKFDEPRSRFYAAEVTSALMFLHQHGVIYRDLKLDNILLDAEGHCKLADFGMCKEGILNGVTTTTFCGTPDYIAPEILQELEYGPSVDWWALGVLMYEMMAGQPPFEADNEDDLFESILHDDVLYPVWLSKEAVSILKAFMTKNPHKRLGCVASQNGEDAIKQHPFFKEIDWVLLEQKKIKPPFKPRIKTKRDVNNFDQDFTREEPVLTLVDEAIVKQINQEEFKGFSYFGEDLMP
To be noted: PRKCE; 1 μM; read-out: % control.

The target of experiment [2] is T2, panel of 468 kinases (Homo sapiens, UniProt Q9H1R3).
T2 construct: purchased KINOMEscan (ScanMAX) service
T2 sequence (Q9H1R3 whole entry): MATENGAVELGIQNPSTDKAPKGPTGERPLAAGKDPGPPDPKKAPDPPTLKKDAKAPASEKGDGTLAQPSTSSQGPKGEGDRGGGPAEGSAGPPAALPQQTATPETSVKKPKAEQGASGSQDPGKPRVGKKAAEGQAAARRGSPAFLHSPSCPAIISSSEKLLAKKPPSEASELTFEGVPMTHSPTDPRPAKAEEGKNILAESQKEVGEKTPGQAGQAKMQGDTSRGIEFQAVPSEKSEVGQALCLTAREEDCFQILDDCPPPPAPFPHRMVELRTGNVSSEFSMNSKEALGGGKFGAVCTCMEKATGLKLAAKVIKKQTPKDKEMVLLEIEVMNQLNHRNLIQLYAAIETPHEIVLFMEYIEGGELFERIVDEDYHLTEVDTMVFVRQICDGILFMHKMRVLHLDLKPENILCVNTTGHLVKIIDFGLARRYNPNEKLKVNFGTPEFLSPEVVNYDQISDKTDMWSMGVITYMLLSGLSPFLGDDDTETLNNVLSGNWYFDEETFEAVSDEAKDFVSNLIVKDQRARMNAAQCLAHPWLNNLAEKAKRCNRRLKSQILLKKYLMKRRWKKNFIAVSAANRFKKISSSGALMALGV
Particulars: MYLK2; 1 μM; read-out: % control.

In experiment [3] the target is T3, panel of 468 kinases (Homo sapiens, UniProt Q9NSY1).
T3 construct: purchased KINOMEscan (ScanMAX) service
Particulars: BIKE; 1 μM; read-out: % control.

Experiment [4] deals with T4, panel of 468 kinases (Homo sapiens, UniProt Q6P2M8).
T4 construct: purchased KINOMEscan (ScanMAX) service
T4 sequence (Q6P2M8 whole entry): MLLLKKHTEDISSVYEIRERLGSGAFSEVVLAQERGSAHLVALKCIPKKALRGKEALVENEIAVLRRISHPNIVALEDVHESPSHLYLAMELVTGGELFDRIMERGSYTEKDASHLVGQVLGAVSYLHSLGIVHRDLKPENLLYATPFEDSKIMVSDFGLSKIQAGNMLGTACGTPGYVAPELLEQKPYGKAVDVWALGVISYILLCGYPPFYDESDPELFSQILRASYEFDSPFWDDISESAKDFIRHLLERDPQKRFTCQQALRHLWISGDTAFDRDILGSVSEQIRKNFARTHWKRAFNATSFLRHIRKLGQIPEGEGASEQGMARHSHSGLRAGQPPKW
Particulars: CAMK1B; 1 μM; read-out: % control.

In experiment [5] the target is T5, panel of 468 kinases (Homo sapiens, UniProt P54764).
T5 construct: purchased KINOMEscan (ScanMAX) service
T5 sequence (P54764 20-986): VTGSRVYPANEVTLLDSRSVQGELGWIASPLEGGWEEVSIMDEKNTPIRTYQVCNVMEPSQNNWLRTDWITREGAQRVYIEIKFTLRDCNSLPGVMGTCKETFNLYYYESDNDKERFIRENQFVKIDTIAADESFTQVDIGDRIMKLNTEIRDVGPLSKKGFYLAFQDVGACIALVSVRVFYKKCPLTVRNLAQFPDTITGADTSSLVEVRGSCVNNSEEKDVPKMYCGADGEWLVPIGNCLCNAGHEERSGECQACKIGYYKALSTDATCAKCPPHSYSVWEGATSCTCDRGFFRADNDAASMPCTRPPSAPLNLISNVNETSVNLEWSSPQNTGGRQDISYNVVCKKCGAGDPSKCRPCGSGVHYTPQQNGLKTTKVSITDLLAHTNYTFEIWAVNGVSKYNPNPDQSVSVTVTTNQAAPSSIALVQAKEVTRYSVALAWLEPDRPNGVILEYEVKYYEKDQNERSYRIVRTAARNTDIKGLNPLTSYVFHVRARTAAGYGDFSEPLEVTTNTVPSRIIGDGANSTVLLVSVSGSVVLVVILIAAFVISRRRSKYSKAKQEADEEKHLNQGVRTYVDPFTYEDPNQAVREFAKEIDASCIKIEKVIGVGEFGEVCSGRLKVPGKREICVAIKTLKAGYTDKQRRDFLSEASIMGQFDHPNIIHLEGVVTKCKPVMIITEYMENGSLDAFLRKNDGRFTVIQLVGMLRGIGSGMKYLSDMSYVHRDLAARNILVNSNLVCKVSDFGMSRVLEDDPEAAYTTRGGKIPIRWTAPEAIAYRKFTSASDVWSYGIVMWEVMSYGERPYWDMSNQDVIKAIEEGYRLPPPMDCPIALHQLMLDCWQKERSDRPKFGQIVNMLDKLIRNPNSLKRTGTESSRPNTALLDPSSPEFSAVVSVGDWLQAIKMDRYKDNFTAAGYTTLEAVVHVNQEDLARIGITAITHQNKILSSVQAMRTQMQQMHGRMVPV
Particulars: EPHA4; 1 μM; read-out: % control.

Experiment [6] deals with T6, panel of 468 kinases (Homo sapiens, UniProt P23443).
T6 construct: purchased KINOMEscan (ScanMAX) service
To be noted: S6K1; 1 μM; read-out: % control.

The target of experiment [7] is T7, panel of 468 kinases (Homo sapiens, UniProt Q02779).
T7 construct: purchased KINOMEscan (ScanMAX) service
Particulars: MLK2; 1 μM; read-out: % control.

Experiment [8] concerns the target T8, panel of 468 kinases (Homo sapiens, UniProt Q16584).
T8 construct: purchased KINOMEscan (ScanMAX) service
Particulars: MLK3; 1 μM; read-out: % control.

Experiment [9] deals with T9, panel of 468 kinases (Homo sapiens, UniProt P04629).
T9 construct: purchased KINOMEscan (ScanMAX) service
To be noted: TRKA; 1 μM; read-out: % control.

The target of experiment [10] is T10, panel of 468 kinases (Homo sapiens, UniProt P53779).
T10 construct: purchased KINOMEscan (ScanMAX) service
T10 sequence (P53779 whole entry): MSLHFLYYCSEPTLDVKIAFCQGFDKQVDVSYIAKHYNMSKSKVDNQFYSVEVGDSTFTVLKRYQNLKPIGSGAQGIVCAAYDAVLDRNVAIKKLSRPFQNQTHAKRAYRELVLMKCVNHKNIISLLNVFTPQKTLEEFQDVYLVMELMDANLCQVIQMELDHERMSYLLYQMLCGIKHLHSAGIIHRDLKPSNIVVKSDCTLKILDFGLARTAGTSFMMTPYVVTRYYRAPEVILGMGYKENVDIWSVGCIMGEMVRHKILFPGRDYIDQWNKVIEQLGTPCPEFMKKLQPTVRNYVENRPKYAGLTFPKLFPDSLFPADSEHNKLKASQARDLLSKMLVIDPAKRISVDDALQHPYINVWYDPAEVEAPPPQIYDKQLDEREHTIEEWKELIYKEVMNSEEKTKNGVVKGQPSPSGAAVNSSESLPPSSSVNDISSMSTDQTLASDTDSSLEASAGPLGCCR
To be noted: JNK3; 1 μM; read-out: % control.

Experiment [11] concerns the target T11, panel of 468 kinases (Homo sapiens, UniProt Q8TDR2).
T11 construct: purchased KINOMEscan (ScanMAX) service
To be noted: STK35; 1 μM; read-out: % control.

For experiment [12], the target named is T12, panel of 468 kinases (Homo sapiens, UniProt O96017).
T12 construct: purchased KINOMEscan (ScanMAX) service
T12 sequence (O96017 whole entry): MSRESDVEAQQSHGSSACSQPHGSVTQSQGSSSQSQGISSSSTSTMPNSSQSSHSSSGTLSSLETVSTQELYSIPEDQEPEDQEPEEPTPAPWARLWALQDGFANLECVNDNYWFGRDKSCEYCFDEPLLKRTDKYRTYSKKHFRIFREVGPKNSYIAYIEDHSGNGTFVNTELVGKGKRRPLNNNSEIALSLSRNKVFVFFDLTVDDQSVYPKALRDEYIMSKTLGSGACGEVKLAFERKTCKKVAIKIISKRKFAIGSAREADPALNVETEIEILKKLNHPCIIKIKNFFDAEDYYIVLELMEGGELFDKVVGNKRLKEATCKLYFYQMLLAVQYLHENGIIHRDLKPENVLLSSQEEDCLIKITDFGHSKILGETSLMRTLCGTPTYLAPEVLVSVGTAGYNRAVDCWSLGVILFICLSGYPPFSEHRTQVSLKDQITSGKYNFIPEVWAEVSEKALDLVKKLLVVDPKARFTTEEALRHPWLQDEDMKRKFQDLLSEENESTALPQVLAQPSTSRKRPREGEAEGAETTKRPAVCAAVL
Particulars: CHEK2; 1 μM; read-out: % control.

Experiment [13] has as its target T13, panel of 468 kinases (Homo sapiens, UniProt Q86YV6).
T13 construct: purchased KINOMEscan (ScanMAX) service
T13 sequence (Q86YV6 1-388): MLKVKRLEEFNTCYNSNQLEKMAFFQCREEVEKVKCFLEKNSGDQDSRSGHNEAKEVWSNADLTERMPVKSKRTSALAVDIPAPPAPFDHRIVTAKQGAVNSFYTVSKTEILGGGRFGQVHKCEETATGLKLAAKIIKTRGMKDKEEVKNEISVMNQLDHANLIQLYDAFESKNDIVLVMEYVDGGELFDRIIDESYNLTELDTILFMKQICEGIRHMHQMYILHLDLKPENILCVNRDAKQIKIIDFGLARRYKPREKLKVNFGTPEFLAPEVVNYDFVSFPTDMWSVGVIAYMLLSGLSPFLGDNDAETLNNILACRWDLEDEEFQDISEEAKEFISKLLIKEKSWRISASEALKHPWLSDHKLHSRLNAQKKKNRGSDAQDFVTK
To be noted: MYLK4; 1 μM; read-out: % control.

The target in experiment [14] is T14, panel of 468 kinases (Homo sapiens, UniProt P06239).
T14 construct: purchased KINOMEscan (ScanMAX) service
Particulars: LCK; 1 μM; read-out: % control.

In experiment [15] the target is T15, panel of 468 kinases (Homo sapiens, UniProt Q02763).
T15 construct: purchased KINOMEscan (ScanMAX) service
T15 sequence (Q02763 23-1124): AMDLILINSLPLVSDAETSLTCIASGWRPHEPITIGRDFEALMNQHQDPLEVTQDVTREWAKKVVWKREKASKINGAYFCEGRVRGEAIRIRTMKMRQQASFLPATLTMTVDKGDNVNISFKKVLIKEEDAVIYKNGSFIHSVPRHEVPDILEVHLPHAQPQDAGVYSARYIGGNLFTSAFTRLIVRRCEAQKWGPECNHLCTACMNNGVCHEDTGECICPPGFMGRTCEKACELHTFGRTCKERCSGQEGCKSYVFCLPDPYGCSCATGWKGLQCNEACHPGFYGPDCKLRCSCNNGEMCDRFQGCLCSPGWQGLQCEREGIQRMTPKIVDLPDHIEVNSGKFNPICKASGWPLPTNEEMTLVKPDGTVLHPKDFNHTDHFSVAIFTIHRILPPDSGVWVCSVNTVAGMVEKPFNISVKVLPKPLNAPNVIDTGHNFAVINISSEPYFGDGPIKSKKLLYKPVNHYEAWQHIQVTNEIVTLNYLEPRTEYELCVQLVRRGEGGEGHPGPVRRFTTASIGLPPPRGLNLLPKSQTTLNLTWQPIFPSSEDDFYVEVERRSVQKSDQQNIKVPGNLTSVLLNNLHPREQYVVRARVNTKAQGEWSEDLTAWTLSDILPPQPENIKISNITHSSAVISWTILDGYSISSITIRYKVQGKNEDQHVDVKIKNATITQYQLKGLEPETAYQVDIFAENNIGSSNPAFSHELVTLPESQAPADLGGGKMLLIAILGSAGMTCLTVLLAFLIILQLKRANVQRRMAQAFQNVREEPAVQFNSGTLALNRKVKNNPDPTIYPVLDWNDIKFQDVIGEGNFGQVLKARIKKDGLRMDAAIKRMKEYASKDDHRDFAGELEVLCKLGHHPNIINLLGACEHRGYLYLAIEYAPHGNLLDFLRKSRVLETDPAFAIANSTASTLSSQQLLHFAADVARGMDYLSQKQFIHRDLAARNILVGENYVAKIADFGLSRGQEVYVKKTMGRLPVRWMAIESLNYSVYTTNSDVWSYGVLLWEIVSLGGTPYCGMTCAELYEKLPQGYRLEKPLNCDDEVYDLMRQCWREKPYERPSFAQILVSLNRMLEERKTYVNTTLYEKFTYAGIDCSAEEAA
Particulars: TIE2; 1 μM; read-out: % control.

Structures are written as SMILES.

T11 sequence (Q8TDR2 whole entry): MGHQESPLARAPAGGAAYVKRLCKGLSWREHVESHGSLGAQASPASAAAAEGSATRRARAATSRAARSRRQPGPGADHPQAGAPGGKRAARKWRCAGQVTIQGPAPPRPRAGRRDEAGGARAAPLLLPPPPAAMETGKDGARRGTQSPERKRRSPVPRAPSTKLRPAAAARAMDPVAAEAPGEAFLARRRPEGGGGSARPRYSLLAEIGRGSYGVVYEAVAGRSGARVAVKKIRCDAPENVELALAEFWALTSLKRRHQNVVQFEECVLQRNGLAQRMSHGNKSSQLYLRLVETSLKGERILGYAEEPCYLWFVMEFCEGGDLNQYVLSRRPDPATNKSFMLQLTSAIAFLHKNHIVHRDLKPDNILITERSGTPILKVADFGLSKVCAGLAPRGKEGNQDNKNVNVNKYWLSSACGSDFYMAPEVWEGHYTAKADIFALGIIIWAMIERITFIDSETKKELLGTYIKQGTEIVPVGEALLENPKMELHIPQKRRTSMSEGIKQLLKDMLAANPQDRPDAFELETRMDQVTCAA

Take `CNc1nc(Nc2ccc(S(=O)(=O)N3CCC(N4CCOCC4)CC3)cc2OC)nc2[nH]cc(Cl)c12` [Compound 12, 5-chloro-N2-(2-methoxy-4-((4-morpholinopiperidin-1-yl)sulfonyl)phenyl)-N4-methyl-7H-pyrrolo[2,3-d]pyrimidine-2,4-diamine]: the remaining binding at 1 µM in experiment [1] worked out at 62%; in [2] it was 100%; in [3], 96%; in [4] it was 95%; in experiment [5], 86%; in [6] it was 100%. In addition, the remaining binding at 1 µM was 99% in experiment [7]; 93% in [8]; 100% in [9]; 16% in experiment [10]; 100% in experiment [11]; 1.8% in [12]. Further, the figures for the remaining binding at 1 µM in experiment [13], in experiment [14] and in [15] were 100%, 91% and 94%, respectively.

With `CNc1nc(Nc2ccc(P3(=O)CCN(C4CCOCC4)CC3)cc2OC)nc2[nH]cc(Cl)c12` [Compound 77, 4-(4-((5-chloro-4-(methylamino)-7H-pyrrolo[2,3-d]pyrimidin-2-yl)amino)-3-methoxyphenyl)-1-(tetrahydro-2H-pyran-4-yl)-1,4-azaphosphinane 4-oxide], the remaining binding at 1 µM in [1] amounted to 87%; in experiment [2], 100%; in [3], 91%; in experiment [4], 54%; in experiment [5], 79%; in experiment [6] it was 98%. Moreover, the remaining binding at 1 µM in [7] was 99%; in [8], 80%; in experiment [9], 100%; in experiment [10], 0.9%; in experiment [11], 100%; in experiment [12], 0.7%. For the same molecule, the remaining binding at 1 µM in experiment [13] was determined as 64%; in [14], 100%; in [15] it was 100%.

Consider `CNc1nc(Nc2ccc(C(=O)N3CCC(N4CCOCC4)CC3)c3c2OCO3)nc2[nH]cc(Cl)c12` [Compound 75, (7-((5-chloro-4-(methylamino)-7H-pyrrolo[2,3-d]pyrimidin-2-yl)amino)benzo[d][1,3]dioxol-4-yl)(4-morpholinopiperidin-1-yl)methanone], for which the remaining binding at 1 µM in experiment [1] was determined as 73%; in experiment [2] it was 86%; in experiment [3], 40%; in [4], 44%; in experiment [5], 92%; in experiment [6], 63%. Besides, the remaining binding at 1 µM in [7] was determined as 93%; in experiment [8] it was 51%; in experiment [9], 70%; in experiment [10], 0.25%; in experiment [11], 100%; in experiment [12], 0.95%. Further, the remaining binding at 1 µM stood at 100% in experiment [13], 100% in [14] and 94% in experiment [15].
